Measured values taken from patent publication US9415049B2, “Heteroaryl compounds and uses thereof” (Celgene Avilomics Research, Inc., priority 2013, dated 2016).

Legend:
[1] = biological target: T1, human recombinant full-length Btk enzyme (Homo sapiens, UniProt Q06187); test: Omnia Continuous Read Kinase Assay, Btk inhibition; type: biochemical; design: human recombinant full-length Btk enzyme; details: 30 minutes pre-incubation at 27° C.; 0.5 nM to 10 μM
From the text: The following Example describes testing certain compounds according to the invention for inhibition of BTK activity. The Omnia® Continuous Read Kinase Assay uses an unnatural amino acid chelation enhanced fluorophore (Sox; 8-hydroxy-5-(N,N-dimethylsulfonamido)-2 methylquinoline) incorporated into a kinase-specific peptide substrate to characterize Btk enzyme kinetics and inhibition. Following Btk-mediated phosphorylation, a sensitive, highly quantifiable increase in real-time fluorescence is noted based upon the ability of chelated Mg2+ to form a bridge between Sox and the phosphate group on a tyrosine residue of the peptide substrate. The Omnia® continuous read assay was performed essentially as described by the vendor (Invitrogen; Carlsbad, Calif.). First, a 10× stock of human recombinant full-length Btk enzyme was prepared in Kinase Reaction Buffer. 5 μL of the 10× enzyme was pre-incubated with 0.5 μL of serially diluted compound prepared in 50% DMSO, in a 384-well microtiter plate for 30 minutes at 27° C. 1.13×ATP and the Tyr5-Sox conjugated peptide substrate were prepared in 1× Kinase Reaction Buffer. Kinase reactions were initiated by the addition of 45 μL of the 1.13×ATP-Sox peptide substrate master mix and monitored every 30 to 90 seconds for 60 minutes at λex360/λem485 in a Synergy plate reader. The IC50 values for each compound assayed were determined from test concentrations of 0.5 nM to 10 μM in half-log intervals performed in duplicate.
At the conclusion of each assay, progress curves from each well were examined for linear reaction kinetics and fit statistics (R2, 95% confidence interval, absolute sum of squares) using GraphPad software (GraphPad Prism version 5.01; San Diego, Calif.). Initial velocity (0 minutes to ˜30+ minutes) from each reaction was determined from the slope of a plot of relative fluorescence units versus time (minutes). Using control normalized % inhibition data, plots were constructed against inhibitor concentration to estimate IC50 from log [inhibitor] versus response using a variable slope model in GraphPad. The compound numbers correspond to the compound numbers in Table 1.

[2] = biological target: T1, human recombinant full-length Btk enzyme; test: Covalent bonding assay, intact protein MALDI mass spectrometry; type: binding; design: The full-length recombinant human Btk protein; purchased Invitrogen Lot #619547Q (catalogue number not given); details: percentage of total protein covalently modified after one hour incubation, 10-fold excess of compound, room temperature
Experimental: The following example describes testing certain compounds to determine whether they covalently bind to BTK. The full-length recombinant human Btk protein (Lot #619547Q; 0.35 mg/mL) was obtained from Invitrogen (Carlsbad, Calif.). Btk protein was diluted 2:3 in phosphate-buffered saline and stock concentration (10 mM) of compound was diluted 1:115 in 50% DMSO.
For all compounds, 1 μL of diluted compound was added to 5 μL of diluted protein. These mixtures were then incubated for 60 minutes at a 10-fold excess of compound to protein under room temperature (˜24° C.) conditions.
At the end of the incubation, 5 μL aliquots of the samples were diluted with 15 μL of 0.2% TFA prior to micro C4 ZipTipping® directly onto the MALDI target plate using sinapinic acid as the desorption matrix (10 mg/mL in 0.2% TFA:Acetonitrile 50:50). Samples were immediately analyzed on an ABSciex 4800 MALDI TOF-TOF mass spectrometer.
For intact protein mass measurement, the mass spectrometer was set in linear mode using a pulsed extraction setting of 81,500. Bovine serum albumin (BSA; Sigma, St Louis, Mo.) was used as the standard to calibrate the instrument. These values correspond to the percentage of total protein covalently modified by the tested compound after one hour incubation.

T1 sequence (Q06187 whole entry): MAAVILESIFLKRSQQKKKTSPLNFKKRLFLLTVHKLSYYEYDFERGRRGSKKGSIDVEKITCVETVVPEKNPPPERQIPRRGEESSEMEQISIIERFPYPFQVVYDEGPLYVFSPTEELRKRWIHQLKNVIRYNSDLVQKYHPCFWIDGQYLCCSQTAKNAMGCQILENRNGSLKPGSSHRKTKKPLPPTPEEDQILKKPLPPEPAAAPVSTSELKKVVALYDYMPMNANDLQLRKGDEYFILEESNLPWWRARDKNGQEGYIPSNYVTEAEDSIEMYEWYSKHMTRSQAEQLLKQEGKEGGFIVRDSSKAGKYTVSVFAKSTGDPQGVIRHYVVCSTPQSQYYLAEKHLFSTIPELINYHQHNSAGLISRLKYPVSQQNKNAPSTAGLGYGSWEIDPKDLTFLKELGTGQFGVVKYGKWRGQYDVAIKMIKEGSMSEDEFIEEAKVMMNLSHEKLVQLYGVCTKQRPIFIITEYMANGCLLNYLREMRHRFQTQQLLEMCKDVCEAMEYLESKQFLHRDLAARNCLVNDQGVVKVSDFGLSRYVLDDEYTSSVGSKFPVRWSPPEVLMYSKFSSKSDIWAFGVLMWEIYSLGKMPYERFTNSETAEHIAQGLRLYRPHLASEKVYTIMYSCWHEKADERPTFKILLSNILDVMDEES

Row | IC50 [1] [nM] | MS % modification [2] | SMILES
1 | ≤ 10 | A (>70% modification) | C=CC(=O)Nc1cccc(Nc2nc(Nc3ccc(O)cc3)ncc2F)c1 [Compound I-3, N-(3-((5-fluoro-2-((4-hydroxyphenyl)amino)pyrimidin-4-yl)amino)phenyl)acrylamide]
2 | ≤ 10 | B (31-69% modification) | C=CC(=O)Nc1cccc(Nc2nc(Nc3ccc(OCCO)cc3)ncc2F)c1 [Compound I-1, N-(3-((5-fluoro-2-((4-(2-hydroxyethoxy)phenyl)amino)pyrimidin-4-yl)amino)phenyl)acrylamide]
